From PubChem BioAssay (NCI)
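Values below derive from 48-hour exposures of cells grown in 96-well plates, with endpoints linearly interpolated between the two concentrations bracketing the appropriate inhibition level. TGI denotes the concentration required for complete inhibition of growth.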

Assays:
Test in all cases: NCI anticancer screen, dose series, 48 h
HT29 colon = tested on: HT29 colon
LOX IMVI melanoma = tested on: LOX IMVI melanoma
A549 NSCLC = tested on: A549 NSCLC
UACC-257 melanoma = tested on: UACC-257 melanoma
SF-295 CNS = tested on: SF-295 CNS
M14 melanoma = tested on: M14 melanoma
MOLT-4 leukemia = tested on: MOLT-4 leukemia
MDA-MB-231 breast = tested on: MDA-MB-231 breast
SN12C renal = tested on: SN12C renal
BT-549 breast = tested on: BT-549 breast
OVCAR-8 ovarian = tested on: OVCAR-8 ovarian
OVCAR-3 ovarian = tested on: OVCAR-3 ovarian
ACHN renal = tested on: ACHN renal
CAKI-1 renal = tested on: CAKI-1 renal
SNB-75 CNS = tested on: SNB-75 CNS
DU-145 prostate = tested on: DU-145 prostate
MALME-3M melanoma = tested on: MALME-3M melanoma
MDA-MB-435 = tested on: MDA-MB-435
NCI-H460 lung = tested on: NCI-H460 lung
UO-31 renal = tested on: UO-31 renal
EKVX NSCLC = tested on: EKVX NSCLC
TK-10 renal = tested on: TK-10 renal
SK-MEL-2 melanoma = tested on: SK-MEL-2 melanoma
NCI-H23 lung = tested on: NCI-H23 lung
SK-OV-3 ovarian = tested on: SK-OV-3 ovarian
SNB-19 CNS = tested on: SNB-19 CNS
MCF7 breast = tested on: MCF7 breast
CCRF-CEM leukemia = tested on: CCRF-CEM leukemia
HS 578T breast = tested on: HS 578T breast
NCI-H226 lung = tested on: NCI-H226 lung
HCT-116 colon = tested on: HCT-116 colon
A498 renal = tested on: A498 renal
COLO 205 colon = tested on: COLO 205 colon
SK-MEL-5 melanoma = tested on: SK-MEL-5 melanoma
HOP-92 NSCLC = tested on: HOP-92 NSCLC
PC-3 prostate = tested on: PC-3 prostate
786-0 renal = tested on: 786-0 renal
IGROV1 ovarian = tested on: IGROV1 ovarian
SW-620 colon = tested on: SW-620 colon
SF-539 CNS = tested on: SF-539 CNS
UACC-62 melanoma = tested on: UACC-62 melanoma
KM12 colon = tested on: KM12 colon
SF-268 CNS = tested on: SF-268 CNS
OVCAR-5 ovarian = tested on: OVCAR-5 ovarian
RXF 393 renal = tested on: RXF 393 renal
T-47D breast = tested on: T-47D breast
U251 CNS = tested on: U251 CNS
HCT-15 colon = tested on: HCT-15 colon
K-562 leukemia = tested on: K-562 leukemia
NCI/ADR-RES ovarian = tested on: NCI/ADR-RES ovarian
HCC-2998 colon = tested on: HCC-2998 colon
MDA-N = tested on: MDA-N

In the case of N#CC1(C#N)C2CCCCC23OC(=N)C1(C#N)C(c1ccccc1)O3 (configuration not stated), the TGI (HT29 colon) is reported as 60.2 µM, the TGI (LOX IMVI melanoma) is reported as 45.1 µM and the TGI (A549 NSCLC) is reported as greater than 100 µM. It also gave a TGI (UACC-257 melanoma) of 37.3 µM, a TGI (SF-295 CNS) greater than 100 µM and a TGI (M14 melanoma) of 28.7 µM. For the same compound, the TGI (MOLT-4 leukemia) was greater than 100 µM, the TGI (MDA-MB-231 breast) was 33.8 µM and the TGI (SN12C renal) was 26.7 µM. The TGI (BT-549 breast) was 34.7 µM, the TGI (OVCAR-8 ovarian) was 48.9 µM and the TGI (OVCAR-3 ovarian) was 28.2 µM. The TGI (ACHN renal) was greater than 100 µM, the TGI (CAKI-1 renal) was 24.5 µM and the TGI (SNB-75 CNS) was 11.7 µM. For the same compound, the TGI (DU-145 prostate) was 64.3 µM, the TGI (MALME-3M melanoma) was 34.5 µM and the TGI (MDA-MB-435) was 83.6 µM. It also gave a TGI (NCI-H460 lung) of 49.7 µM, a TGI (UO-31 renal) greater than 100 µM and a TGI (EKVX NSCLC) of 60.6 µM. It also gave a TGI (TK-10 renal) of 37.6 µM, a TGI (SK-MEL-2 melanoma) of 43 µM and a TGI (NCI-H23 lung) greater than 100 µM. The TGI (SK-OV-3 ovarian) was greater than 100 µM, the TGI (SNB-19 CNS) was greater than 100 µM and the TGI (MCF7 breast) was 49.9 µM. The TGI (CCRF-CEM leukemia) was greater than 100 µM, the TGI (HS 578T breast) was 4.76 µM and the TGI (NCI-H226 lung) was greater than 100 µM. The TGI (HCT-116 colon) was 41.4 µM, the TGI (A498 renal) was 48.9 µM and the TGI (COLO 205 colon) was 34.1 µM. The TGI (SK-MEL-5 melanoma) was 33 µM, the TGI (HOP-92 NSCLC) was 33.6 µM and the TGI (PC-3 prostate) was 55.4 µM. For the same compound, the TGI (786-0 renal) was 33.7 µM, the TGI (IGROV1 ovarian) was 37.2 µM and the TGI (SW-620 colon) was greater than 100 µM. The TGI (SF-539 CNS) was 42.1 µM, the TGI (UACC-62 melanoma) was 49.4 µM and the TGI (KM12 colon) was 25.8 µM. For the same compound, the TGI (SF-268 CNS) was 18.1 µM, the TGI (OVCAR-5 ovarian) was 50.6 µM and the TGI (RXF 393 renal) was greater than 100 µM. The TGI (T-47D breast) was 57.9 µM, the TGI (U251 CNS) was 69.6 µM and the TGI (HCT-15 colon) was 28.6 µM. It also gave a TGI (K-562 leukemia) greater than 100 µM, a TGI (NCI/ADR-RES ovarian) greater than 100 µM and a TGI (HCC-2998 colon) of 29 µM. For the same compound, the TGI (MDA-N) was 27.9 µM.
